# Where two headings read alike, the source gives them in different places.
# What was measured:
# A549 = experiment: Proliferation Assays (NSCLC cell line sensitivity); assay type: cell-based
# Calu-3 = experiment: Proliferation Assays (NSCLC cell line sensitivity); assay type: cell-based; conditions: ACA, KRAS WT, EGFR wt (HER2+)
# H1299 = experiment: Proliferation Assays (NSCLC cell line sensitivity); assay type: cell-based; conditions: KRAS WT, EGFR WT
# H157 = experiment: Proliferation Assays (NSCLC cell line sensitivity); assay type: cell-based
# H1650 = experiment: Proliferation Assays (NSCLC cell line sensitivity); assay type: cell-based; conditions: KRAS WT, EGFR E746 A750del (exon19)
# H1703 = experiment: Proliferation Assays (NSCLC cell line sensitivity); assay type: cell-based; conditions: KRAS WT, EGFR WT
# H1975 = experiment: Proliferation Assays (NSCLC cell line sensitivity); assay type: cell-based; conditions: ACA, KRAS WT, EGFR L858R, T790M
# H2009 = experiment: Proliferation Assays (NSCLC cell line sensitivity); assay type: cell-based; conditions: KRAS MUT, EGFR WT
# H2122 = experiment: Proliferation Assays (NSCLC cell line sensitivity); assay type: cell-based; conditions: KRAS MUT, EGFR WT
# H2126 = experiment: Proliferation Assays (NSCLC cell line sensitivity); assay type: cell-based
# H226 = experiment: Proliferation Assays (NSCLC cell line sensitivity); assay type: cell-based; conditions: KRAS WT, EGFR WT
# H3255 = experiment: Proliferation Assays (NSCLC cell line sensitivity); assay type: cell-based; conditions: EGFR L858R
# H441 = experiment: Proliferation Assays (NSCLC cell line sensitivity); assay type: cell-based; conditions: BAC, KRAS MUT, EGFR WT
# H460 = experiment: Proliferation Assays (NSCLC cell line sensitivity); assay type: cell-based
# H520 = experiment: Proliferation Assays (NSCLC cell line sensitivity); assay type: cell-based; conditions: KRAS WT, EGFR WT
# HCC15 = experiment: Proliferation Assays (NSCLC cell line sensitivity); assay type: cell-based; conditions: SQC, KRAS WT, EGFR WT
# HCC95 = experiment: Proliferation Assays (NSCLC cell line sensitivity); assay type: cell-based; conditions: SQC, KRAS WT, EGFR WT
# NCI-H23 = experiment: Proliferation Assays (NSCLC cell line sensitivity); assay type: cell-based
# [1] = tested on: panel of NSCLC cell lines; experiment: Proliferation Assays, panel of NSCLC cell lines; assay type: cell-based; conditions: various degrees of sensitivity
# A549 xenografts = experiment: A549 xenograft in nude mice; assay type: in vivo, athymic nude mice; conditions: erlotinib 40 mg/kg 3× per week oral gavage, Compound 1 5 mg/kg/daily oral gavage, Day 26 to day 53
# Text: (§1) A549 adenocarcinoma or H1975 cells in single cell suspension were implanted into the posterior flanks of athymic nude mice. […] For the A549 xenograft, the treatments were started on Day 26 after implantation and were stopped on day 53, while for the H1975 xenograft, the treatments were started on day 17 after implantation and were stopped on day 30.
# H1975 xenografts = experiment: H1975 xenograft in nude mice; assay type: in vivo, athymic nude mice; conditions: erlotinib 40 mg/kg 3× per week oral gavage, Compound 1 5 mg/kg/daily oral gavage, day 17 to day 30
# Text: as §1
structure (smiles),measurement,setting,value
"CO[C@H]1CC[C@H](N2C(=O)CNc3ncc(-c4ccc(C(C)(C)O)nc4)nc32)CC1 [Compound 1, 7-(6-(2-hydroxypropan-2-yl)pyridin-3-yl)-1-((1r,4r)-4-methoxycyclohexyl)-3,4-dihydropyrazino-[2,3-b]pyrazin-2(1H)-one]",IC50,"A549; A549, ACA, KRAS MUT G125, EGFR WT, read-out: IC50",0.58 µM
same,IC50,Calu-3,0.184 µM
same,IC50,H1299; Large Cell Neuroendocrin,3.09 µM
same,IC50,"H157; H157, SQC, KRAS MUT, EGFR WT",2.61 µM
same,IC50,H1650; ACA,5.2 µM
same,IC50,H1703; SCC,1.64 µM
same,IC50,H1975,0.25 µM
same,IC50,H2009; ACA,5.05 µM
same,IC50,H2122; ACA,1.59 µM
same,IC50,"H2126; H2126, ACA, KRAS WT, EGFR WT, read-out: IC50",0.214 µM
same,IC50,H226; SQC,1.98 µM
same,IC50,H3255; ACA,11.9 µM
same,IC50,H441; ACA,0.392 µM
same,IC50,"H460; H460, LCC, KRAS MUT G61H, EGFR WT, read-out: IC50",0.153 µM
same,IC50,H520; SQC,0.374 µM
same,IC50,HCC15,6.37 µM
same,IC50,HCC95,0.724 µM
same,IC50,"NCI-H23; NCI-H23, ACA, KRAS MUT 12 mutation G12C, read-out: IC50",3 µM
same,anti-proliferative activity,[1],demonstrated anti-proliferative activity
"C#Cc1cccc(Nc2ncnc3cc(OCCOC)c(OCCOC)cc23)c1 [Erlotinib, erlotinib]",IC50,"A549; Homo sapiens, A549, read-out: IC50 (value in parentheses beside > 10 μM)",25.2 µM
same,IC50,"A549; Homo sapiens, A549, ACA, KRAS MUT G125, EGFR WT, read-out: IC50",> 10 µM
same,IC50,Calu-3; Homo sapiens,7.09 µM
same,IC50,"H1299; Homo sapiens, NCI-H1299, Large Cell Neuroendocrin",> 10 µM
same,IC50,"H157; Homo sapiens, NCI-H157",> 10 µM
same,IC50,"H1650; Homo sapiens, NCI-H1650, ACA",2.84 µM
same,IC50,"H1703; Homo sapiens, NCI-H1703, SCC",> 10 µM
same,IC50,"H2009; Homo sapiens, NCI-H2009, ACA",15.3 µM
same,IC50,"H2122; Homo sapiens, NCI-H2122, ACA",> 10 µM
same,IC50,"H2126; Homo sapiens, NCI-H2126, read-out: IC50 (value in parentheses beside > 10 μM)",19.8 µM
same,IC50,"H2126; Homo sapiens, NCI-H2126, H2126, ACA, KRAS WT, EGFR WT, read-out: IC50",> 10 µM
same,IC50,"H226; Homo sapiens, NCI-H226, SQC",> 10 µM
same,IC50,"H3255; Homo sapiens, NCI-H3255, ACA",0.205 µM
same,IC50,"H441; Homo sapiens, NCI-H441, ACA",> 10 µM
same,IC50,"H460; Homo sapiens, NCI-H460, read-out: IC50 (value in parentheses beside > 10 μM)",18 µM
same,IC50,"H460; Homo sapiens, NCI-H460, H460, LCC, KRAS MUT G61H, EGFR WT, read-out: IC50",> 10 µM
same,IC50,"H520; Homo sapiens, NCI-H520, SQC",> 10 µM
same,IC50,HCC15,> 10 µM
same,IC50,HCC95; Homo sapiens,6.45 µM
same,IC50,"NCI-H23; Homo sapiens, NCI-H23, read-out: IC50 (value in parentheses beside > 10 μM)",22.8 µM
same,IC50,"NCI-H23; Homo sapiens, NCI-H23, ACA, KRAS MUT 12 mutation G12C, read-out: IC50",> 10 µM
same,anti-proliferative activity,[1],demonstrated anti-proliferative activity
same,tumor growth during treatment,A549 xenografts,resistant
same,tumor growth during treatment,H1975 xenografts,moderately sensitive

# Reference: patent publication US9375443B2 (Signal Pharmaceuticals, LLC, priority 2012, dated 2016)
